Test results published in patent US20030203890A1 (priority 2001, published 2003).
pKi: −log10 of the molar value. Read-outs that look alike come from different tables or passages of the source. One block for each compound: values may come before it.

Assays:
cavernous nerve = test: Intracavernosal pressure (ICP) response to electrostimulation after cavernous nerve crush injury; type: in vivo, Sprague-Dawley rats; conditions: for ICP response, Control side: control (intact) side; for ICP response, Control side / ICP response, Crush side: 1 day following R-cavernous nerve crush, i.p., FK506 1 mg/kg, Compound 153 15 mg/kg, +/- sem; for ICP response, Crush side: crush (injured) side
Description: (§1) Cavernous nerve injury was performed in 12 week old Sprague-Dawley rats by crushing the right cavernous nerve for 3×15 seconds with a fine tip forceps. The rats were treated with saline or Compound 153 (15 mg/kg i.p.) just prior to nerve crush. The right and left major pelvic ganglia were processed for nNOS immunoreactivity. Intracavernosal pressure (ICP) responses to electrostimulation of the right (injured) and left (intact) cavernous nerves were recorded for each animal at 24 hours or 7 days post injury.

sciatic nerve = conditions: rats with crushed sciatic nerves; Gold et al. 1994/1995, Steiner et al. 1997; cited from earlier work
FKBP12 = FKBP12 (Homo sapiens, UniProt P62942); test: K1 test procedure: inhibition of peptidyl-prolyl isomerase (rotamase) activity of FKBP12, chymotrypsin-coupled assay; type: biochemical
FKBP12, sequence (P62942 whole entry, species assumed): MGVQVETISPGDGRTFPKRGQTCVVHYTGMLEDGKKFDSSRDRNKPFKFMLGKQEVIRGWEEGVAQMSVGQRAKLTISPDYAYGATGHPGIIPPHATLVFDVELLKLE
Description: The inhibition of the prolyl peptidyl cis-trans isomerase activity of FKBP may be measured as an indicator of this affinity.
The cis-trans isomerization of an alanine-proline bond in a model substrate, N-succinyl-Ala-Ala-Pro-Phe-p-nitroanilide, is monitored spectrophotometrically in a chymotrypsin-coupled assay, which releases paranitroanilide from the trans form of the substrate. The inhibition of this reaction caused by the addition of different concentrations of inhibitor is determined, and the data is analyzed as a change in first-order rate constant as a function of inhibitor concentration to yield the apparent K1 values.
In a plastic cuvette are added […] of ice cold assay buffer (25 mM HEPES, pH 7.8, 100 mM NaCl), […] of FKBP (2.5 mM in 10 mM Tris-Cl pH 7.5, 100 mM NaCl, 1 mM dithiothreitol), […] of chymotrypsin (50 mg/ml in 1 mM HCl) and […] of test compound at various concentrations in dimethyl sulfoxide.

major pelvic ganglia [1] = test: nNOS immunoreactivity of right and left major pelvic ganglia after cavernous nerve crush; type: in vivo, Sprague-Dawley rats; conditions: FIG. 1; rat right cavernous nerve crush; 15 mg/kg i.p. just prior to nerve crush
Description: as §1

major pelvic ganglia [2] = test: Cresyl Violet staining of right and left major pelvic ganglia after cavernous nerve crush; type: in vivo, Sprague-Dawley rats; conditions: FIG. 2; rat right cavernous nerve crush
[3] = apparent Ki, rotamase inhibition, Table XLI, Formulas I to XIV, read-out: Ki
[4] = relative potency ranking, Table XLII, Formulas XV to XXIV, read-out: Ki
[5] = apparent Ki, rotamase inhibition, Table XLIII, Formulas XXV to XXIX, read-out: K1

SMILES: C=CC[C@@H]1/C=C(\C)C[C@H](C)C[C@H](OC)[C@H]2O[C@@](O)(C(=O)C(=O)N3CCCC[C@H]3C(=O)O[C@H](/C(C)=C/[C@@H]3CC[C@@H](O)[C@H](OC)C3)[C@H](C)[C@@H](O)CC1=O)[C@H](C)C[C@@H]2OC [FK506, reference compound]
ICP response, Control side (cavernous nerve): 36.9 +/− 7.7
ICP response, Crush side (cavernous nerve): 32.0 +/− 6.7

SMILES: CC[C@@H]1/C=C(\C)[C@@H](O)[C@H](C)C[C@H](OC)[C@H]2O[C@@](O)(C(=O)C(=O)N3CCCC[C@H]3C(=O)O[C@H](/C(C)=C/[C@@H]3CC[C@@H](O)[C@H](OC)C3)[C@H](C)[C@@H](O)CC1=O)[C@H](C)C[C@@H]2OC [L-685,818]
nerve regeneration and morphological/functional recovery following sciatic nerve crush (sciatic nerve): as effective as FK506

SMILES: O=C(C(=O)N1CCC[C@H]1C(=O)SCCCCc1ccccc1)C1CCCCC1 [compound 33]
pKi (FKBP12; [3]): 5.77

SMILES: CCC(C)(C)C(=O)C(=O)N1CCC[C@H]1C(=O)SCCCc1cccc2ccccc12 [compound 47]
pKi (FKBP12; [3]): 7.68

pKi (FKBP12; [3]): 6.65
SMILES: CCC(C)(C)C(=O)C(=O)N1CCC[C@H]1C(=O)OCCCc1ccc[n+]([O-])c1 [compound 95]

pKi (FKBP12; [4]): 7.30 to 9.00
SMILES: CCC(C)CNC(=O)N1CCC[C@H]1C(=O)SCCCc1cccnc1 (stereo partly drawn) [compound 101, 3-(3-Pyridyl)-1-propylmercaptyl 2S-1-[(2-methylbutyl)carbamoyl]pyrrolidine-2-carboxylate]

pKi (FKBP12; [4]): 6.70 to 7.29
SMILES: CCC(C)(C)NC(=O)N1CCC[C@H]1C(=O)SCCCc1cccnc1 [compound 102]

pKi (FKBP12; [4]): 6.70 to 7.29
SMILES: COc1ccc(CCCSC(=O)C2CCCN2C(=S)NC2CCCCC2)cc1 (stereo not shown) [compound 105]

pKi (FKBP12; [4]): 7.30 to 9.00
SMILES: CCC(C)(C)NC(=S)N1CCCC1C(=O)SCCCc1cccnc1 (stereo not shown) [compound 109]

pKi (FKBP12; [4]): 7.30 to 9.00
SMILES: CCC(C)(C)NC(=O)N1CCCC1C(=O)SCCC(c1ccccc1)c1ccccc1 (stereo not shown) [compound 110]

pKi (FKBP12; [4]): 7.30 to 9.00
SMILES: O=C(SC(CCc1ccccc1)CCc1ccccc1)C1CCCCN1C(=O)NC1CCCCC1 (stereo not shown) [compound 114]

pKi (FKBP12; [4]): 6.70 to 7.29
SMILES: COc1ccc(CCCSC(=O)[C@@H]2CCCN2S(=O)(=O)c2ccccc2)cc1 [compound 120, 3-(para-Methoxyphenyl)-1-propylmercaptyl(2S)-N-(benzenesulfonyl)pyrrolidine-2-carboxylate]

pKi (FKBP12; [4]): 6.70 to 7.29
SMILES: COc1ccc(CCCSC(=O)[C@@H]2CCCN2S(=O)(=O)Cc2ccccc2)cc1 [compound 121, 3-(para-Methoxyphenyl)-1-propylmercaptyl(2S)-N-(a-toluenesulfonyl)pyrrolidine-2-carboxylate]

pKi (FKBP12; [4]): 6.30 to 6.70
SMILES: COc1ccc(CCCSC(=O)[C@@H]2CCCN2S(=O)(=O)c2ccc(C)cc2)cc1 [compound 122, 3-(para-Methoxyphenyl)-1-propylmercaptyl(2S)-N-(a-toluenesulfonyl)pyrrolidine-2-carboxylate]

pKi (FKBP12; [5]): 6.35
SMILES: CCC(C)(C)C(=O)C(=O)N1CCC[C@H]1C(=O)OC/C=C/c1cc(OC)ccc1OC [compound 151, 3-(2,5-dimethoxyphenyl)-1-prop-2-(E)-enyl (2S)-1-(3,3-dimethyl-1,2-dioxopentyl)-2-pyrrolidine-carboxylate]

SMILES: CCC(C)(C)C(=O)C(=O)N1CCC[C@H]1C(=O)OCCCc1cccnc1 [compound 153, 3-(3-Pyridyl)-1-propyl (2S)-1-(3,3-dimethyl-1,2-dioxopentyl)-2-pyrrolidinecarboxylate]
effect of administration on crushed cavernous nerves (cavernous nerve; Example 30, rats, 15 mg/kg i.p. just prior to nerve crush): regenerate the penile cavernous nerve
ICP response, Control side (cavernous nerve): 42.8 +/− 1.9
ICP response, Crush side (cavernous nerve): 42.7 +/− 2.2
effect on the right and left major pelvic ganglia as processed for nNOS immunoreactivity (major pelvic ganglia [1]): protective effect
effect on the right and left major pelvic ganglia as processed for Cresyl Violet staining (major pelvic ganglia [2]): protective effect

pKi (FKBP12; [5]): 6.82
SMILES: CC1(C)COC(=O)CCCCCCCCCCCOC(=O)[C@@H]2CCCCN2C(=O)C1=O [compound 186, (24aS)-17,17-dimethylperhydropyrido[2,1-c] [1,9,4]dioxazacyclohenicosine-1,14,18,19-tetraone]
